Measured values as given in publication PMC12130737, “Taurine Alleviates Pancreatic β‐Cell Senescence by Inhibition of p53 Pathway” (Journal of Diabetes, 2025).
Positions count from the first letter of the chain named.

Tests used:
[1] = biological target: T1, GFP-tagged CDKN2AIP (Homo sapiens, UniProt Q9NXV6); test: DARTS (proteinase K protection, immunoblot); type: biochemical; conditions: HEK293 cell lysate, GFP-tagged wild type
T1 construct: GFP-tagged human CDKN2AIP expressed in HEK293 cells, cell lysate
T1 sequence (Q9NXV6 2-580): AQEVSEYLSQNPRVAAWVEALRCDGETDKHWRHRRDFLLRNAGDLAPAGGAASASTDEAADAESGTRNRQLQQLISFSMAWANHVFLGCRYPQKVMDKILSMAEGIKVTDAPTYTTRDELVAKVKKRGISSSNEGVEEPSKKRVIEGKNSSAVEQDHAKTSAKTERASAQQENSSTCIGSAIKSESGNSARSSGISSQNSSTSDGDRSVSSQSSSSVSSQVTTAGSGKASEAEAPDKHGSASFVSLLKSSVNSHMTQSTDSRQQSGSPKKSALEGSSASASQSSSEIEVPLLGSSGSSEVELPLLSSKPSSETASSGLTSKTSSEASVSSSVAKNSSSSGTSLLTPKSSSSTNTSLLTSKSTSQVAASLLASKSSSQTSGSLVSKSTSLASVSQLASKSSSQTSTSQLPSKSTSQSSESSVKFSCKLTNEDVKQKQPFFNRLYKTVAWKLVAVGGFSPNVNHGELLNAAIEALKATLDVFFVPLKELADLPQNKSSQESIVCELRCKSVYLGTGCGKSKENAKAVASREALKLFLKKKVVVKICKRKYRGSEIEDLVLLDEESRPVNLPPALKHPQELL

[2] = biological target: T2, SLC6A6 (Mus musculus, UniProt O35316); test: DARTS (proteinase K protection, immunoblot); type: biochemical; conditions: MIN6 cell lysate, taurine 0-200 uM, pH 7.5, 1 h on ice; positive control
T2 construct: endogenous protein in MIN6 cell lysate
T2 sequence (O35316 1-621): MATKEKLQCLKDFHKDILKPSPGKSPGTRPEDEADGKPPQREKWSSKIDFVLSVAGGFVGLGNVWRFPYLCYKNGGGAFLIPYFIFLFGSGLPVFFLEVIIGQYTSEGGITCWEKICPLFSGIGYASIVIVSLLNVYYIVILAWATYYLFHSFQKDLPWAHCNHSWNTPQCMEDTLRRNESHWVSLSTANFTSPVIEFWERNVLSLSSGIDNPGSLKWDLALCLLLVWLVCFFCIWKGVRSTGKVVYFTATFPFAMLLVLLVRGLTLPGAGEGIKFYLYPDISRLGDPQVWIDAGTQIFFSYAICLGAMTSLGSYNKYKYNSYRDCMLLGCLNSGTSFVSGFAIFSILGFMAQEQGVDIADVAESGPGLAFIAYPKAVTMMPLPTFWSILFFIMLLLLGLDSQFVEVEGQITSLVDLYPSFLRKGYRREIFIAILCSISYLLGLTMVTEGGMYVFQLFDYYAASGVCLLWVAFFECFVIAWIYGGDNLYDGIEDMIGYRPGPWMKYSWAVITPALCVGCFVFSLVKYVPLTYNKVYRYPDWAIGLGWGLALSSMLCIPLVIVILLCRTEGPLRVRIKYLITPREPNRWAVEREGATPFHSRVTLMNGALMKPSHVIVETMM

[3] = biological target: T3, SLC6A6 (Rattus norvegicus, UniProt P31643); test: DARTS (proteinase K protection, immunoblot); type: biochemical; conditions: INS-1E cell lysate, taurine 0-200 uM, pH 7.5, 1 h on ice; positive control
T3 construct: endogenous protein in INS-1E cell lysate
T3 sequence (P31643 1-621): T2 sequence (O35316 1-621) with H151Q, T188A, N212H, D281N, G286E, L435V, V521I, L555V, V602A

[4] = biological target: T4, CDKN2AIP recombinant protein (Homo sapiens, UniProt Q9NXV6); test: DARTS (proteinase K protection of recombinant protein); type: binding
T4 construct: recombinant human CDKN2AIP
T4 sequence (Q9NXV6 2-580): T1 sequence (Q9NXV6 2-580)

[5] = biological target: T5, GFP-tagged CDKN2AIP (Homo sapiens, UniProt Q9NXV6, P484A/L485A/K486A); test: DARTS (proteinase K protection, immunoblot); type: biochemical; conditions: HEK293 cell lysate, GFP-tagged triple mutant
T5 construct: GFP-tagged human CDKN2AIP expressed in HEK293 cells, cell lysate
T5 sequence (Q9NXV6 2-580 P484A/L485A/K486A): T1 sequence (Q9NXV6 2-580) with P483A, L484A, K485A

[6] = biological target: T6, CDKN2AIP (Mus musculus, UniProt Q8BI72); test: DARTS (proteinase K protection, immunoblot); type: biochemical; conditions: MIN6 cell lysate, taurine 0-200 uM, pH 7.5, 1 h on ice
T6 construct: endogenous protein in MIN6 cell lysate
T6 sequence (Q8BI72 2-563): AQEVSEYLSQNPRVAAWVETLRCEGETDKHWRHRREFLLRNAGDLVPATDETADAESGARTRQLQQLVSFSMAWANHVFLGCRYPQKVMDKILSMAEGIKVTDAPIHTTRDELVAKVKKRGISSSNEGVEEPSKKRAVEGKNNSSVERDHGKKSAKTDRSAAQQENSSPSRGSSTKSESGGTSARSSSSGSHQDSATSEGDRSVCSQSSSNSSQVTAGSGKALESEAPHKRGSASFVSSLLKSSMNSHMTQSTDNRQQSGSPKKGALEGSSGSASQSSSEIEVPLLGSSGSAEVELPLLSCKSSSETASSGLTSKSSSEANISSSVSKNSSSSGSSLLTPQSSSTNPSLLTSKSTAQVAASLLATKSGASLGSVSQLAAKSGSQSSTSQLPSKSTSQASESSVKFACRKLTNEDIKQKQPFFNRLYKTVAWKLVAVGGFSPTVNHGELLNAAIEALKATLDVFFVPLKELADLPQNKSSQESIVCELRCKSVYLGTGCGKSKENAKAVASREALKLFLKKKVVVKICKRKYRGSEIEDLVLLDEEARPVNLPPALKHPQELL

[7] = biological target: T7, CDKN2AIP (Rattus norvegicus, UniProt Q5U2X0); test: DARTS (proteinase K protection, immunoblot); type: biochemical; conditions: INS-1E cell lysate, taurine 0-200 uM, pH 7.5, 1 h on ice
T7 construct: endogenous protein in INS-1E cell lysate
T7 sequence (Q5U2X0 2-570): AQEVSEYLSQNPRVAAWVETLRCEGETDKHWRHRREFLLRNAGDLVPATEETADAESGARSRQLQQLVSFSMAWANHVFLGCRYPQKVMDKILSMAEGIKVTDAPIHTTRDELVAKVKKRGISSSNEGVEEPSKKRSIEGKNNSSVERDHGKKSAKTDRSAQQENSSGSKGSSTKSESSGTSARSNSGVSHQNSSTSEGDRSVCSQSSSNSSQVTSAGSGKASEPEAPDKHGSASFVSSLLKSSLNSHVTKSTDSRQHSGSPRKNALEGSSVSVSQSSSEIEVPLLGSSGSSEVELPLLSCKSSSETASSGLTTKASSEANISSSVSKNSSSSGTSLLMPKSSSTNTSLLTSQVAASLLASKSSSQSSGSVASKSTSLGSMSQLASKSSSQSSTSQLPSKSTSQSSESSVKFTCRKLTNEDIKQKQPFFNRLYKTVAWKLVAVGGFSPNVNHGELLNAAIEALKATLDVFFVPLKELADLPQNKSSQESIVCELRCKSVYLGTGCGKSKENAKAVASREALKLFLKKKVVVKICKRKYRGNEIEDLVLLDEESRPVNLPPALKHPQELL

For `NCCS(=O)(=O)O` [taurine, 2‐aminoethanesulfonic acid], the “DARTS (proteinase K protection, immunoblot)” value [1] was “DARTS experiments demonstrated that taurine bound to wild‐type CDKN2AIP”, the “DARTS (proteinase K protection, immunoblot)” value [2] was “taurine dose‐dependently prevented protease K‐induced degradation of CDKN2AIP and SLC6A6” and the “DARTS (proteinase K protection, immunoblot)” value [3] was “taurine dose‐dependently prevented protease K‐induced degradation of CDKN2AIP and SLC6A6”. For the same compound, the “DARTS (proteinase K protection of recombinant protein)” value [4] was “Taurine also prevented proteinase K‐induced degradation of the CDKN2AIP recombinant protein”, the “DARTS (proteinase K protection, immunoblot)” value [5] was “taurine bound to wild‐type CDKN2AIP but not the CDKN2AIP‐triple mutant” and the “DARTS (proteinase K protection, immunoblot)” value [6] was “taurine dose‐dependently prevented protease K‐induced degradation of CDKN2AIP and SLC6A6”. For the same compound, the “DARTS (proteinase K protection, immunoblot)” value [7] was “taurine dose‐dependently prevented protease K‐induced degradation of CDKN2AIP and SLC6A6”.
